Test results as given in patent publication US6692880B2, “Electrophotographic toner with stable triboelectric properties” (Heidelberger Druckmaschinen AG, priority 2001, dated 2004).

How the values were obtained:
[1] = Charge per mass of developers after exercise periods, MECCA device; format: physicochemical; settings: clear polyester toner; for Fresh Developer 10 min exercise (charge values) / Fresh developer 2 min shake (charge values) / Rebuilt developer 2 min shake (charge values) / Rebuilt developer 10 min exercise (charge values): Binder C resin
[2] = pKa values measured by titrimetry; format: physicochemical; settings: (a) values measured by titrimetry; read-out: pKa 1
Text: Any acidic material having a pKa in the range of from about 2 to about 8 can be used as the first charge control agent. Acidic materials with pKa values of from 3 to 7 are particularly preferred. Acidic materials preferably contain a labile proton, such as a carboxylic, phenolic or sulfonic acid. More broadly an acid also includes compounds within the definition as proposed by G. N. Lewis, that is an acid is any material capable of accepting an electron pair from a donor molecule. The term pKa is defined as
where Ka is an inherent molecular property of an acidic compound and is called the acid dissociation constant. Ka is defined by the following equation; [formula]
In a practical sense the lower the pKa value the stronger the acid. Acids useful in this invention may have more than one acid function per molecule such as di- and tri-carboxylic or di- and tri-sulfonic acids. Further, multiple types of acid functional groups may be present in the useful molecule for example as in p-carboxybenzenesulfonic acid. One skilled in the art can readily propose other such acids based on the foregoing definitions.

[3] = obtained or extrapolated from tables in Morrison and Boyd; cited from earlier work
[4] = 0.2 pph added acid, 2 pph Bontron E-84
[5] = 1 pph added acid, 2 pph Bontron E-84
[6] = 5 pph added acid, 2 pph Bontron E-84
[7] = 0.2 pph added acid, LLT-101 resin, 2 pph Bontron E-84
[8] = 1 pph added acid, LLT-101 resin, 2 pph Bontron E-84
[9] = 5 pph added acid, LLT-101 resin, 2 pph Bontron E-84
[10] = 0.2 pph adipic acid added, 0 pph Bontron E-84, Binder C
[11] = 0.2 pph adipic acid added, 2 pph Bontron E-84, Binder C
[12] = 1 pph adipic acid added, 0 pph Bontron E-84, Binder C
[13] = 1 pph adipic acid added, 2 pph Bontron E-84, Binder C
[14] = 5 pph adipic acid added, 0 pph Bontron E-84, Binder C
[15] = 5 pph adipic acid added, 2 pph Bontron E-84, Binder C

C=C(CC(=O)O)C(=O)O [Itaconic acid]
Fresh Developer 10 min exercise (charge values) [1, 4]: −63.1 μC/g | Fresh developer 2 min shake (charge values) [1, 4]: −20.6 μC/g | Rebuilt developer 2 min shake (charge values) [1, 4]: −41.3 μC/g | Rebuilt developer 10 min exercise (charge values) [1, 4]: −49.7 μC/g | Fresh Developer 10 min exercise (charge values) [1, 5]: −33.7 μC/g | Fresh developer 2 min shake (charge values) [1, 5]: −13.6 μC/g | Rebuilt developer 2 min shake (charge values) [1, 5]: −10.2 μC/g | Rebuilt developer 10 min exercise (charge values) [1, 5]: −22.6 μC/g | Fresh Developer 10 min exercise (charge values) [1, 6]: −24.1 μC/g | Fresh developer 2 min shake (charge values) [1, 6]: −11.9 μC/g | Rebuilt developer 2 min shake (charge values) [1, 6]: −6.4 μC/g | Rebuilt developer 10 min exercise (charge values) [1, 6]: −18.7 μC/g

CCOC(=O)/C=C/C(=O)O [fumaric acid monoethyl ester]
pKa [2]: 3.5

CC1=NN(c2ccccc2)C(=O)C1 [MPP, 2,4-dihydro-5-methyl-2-phenyl-3H-pyrazol-3-one]
pKa [2]: 6.6

O=C(O)CCCC(=O)O [Glutaric acid]
pKa 2 [3]: 5.4 | Fresh Developer 10 min exercise (charge values) [1, 4]: −66.2 μC/g | Fresh developer 2 min shake (charge values) [1, 4]: −26.5 μC/g | Rebuilt developer 2 min shake (charge values) [1, 4]: −45.7 μC/g | Rebuilt developer 10 min exercise (charge values) [1, 4]: −58.1 μC/g | Fresh Developer 10 min exercise (charge values) [1, 5]: −42.5 μC/g | Fresh developer 2 min shake (charge values) [1, 5]: −16.6 μC/g | Rebuilt developer 2 min shake (charge values) [1, 5]: −15.6 μC/g | Rebuilt developer 10 min exercise (charge values) [1, 5]: −30.1 μC/g | Fresh Developer 10 min exercise (charge values) [1, 6]: −11.8 μC/g | Fresh developer 2 min shake (charge values) [1, 6]: −6.2 μC/g | Rebuilt developer 2 min shake (charge values) [1, 6]: −4.5 μC/g | Rebuilt developer 10 min exercise (charge values) [1, 6]: −13.3 μC/g

Nc1ccc(C(=O)O)cc1 [4-aminobenzoic acid]
Fresh Developer 10 min exercise (charge values) [1, 4]: −78.1 μC/g | Fresh developer 2 min shake (charge values) [1, 4]: −35.3 μC/g | Rebuilt developer 2 min shake (charge values) [1, 4]: −63.2 μC/g | Rebuilt developer 10 min exercise (charge values) [1, 4]: −72.1 μC/g | Fresh Developer 10 min exercise (charge values) [1, 5]: −84.8 μC/g | Fresh developer 2 min shake (charge values) [1, 5]: −40.0 μC/g | Rebuilt developer 2 min shake (charge values) [1, 5]: −56.8 μC/g | Rebuilt developer 10 min exercise (charge values) [1, 5]: −67.7 μC/g | Fresh Developer 10 min exercise (charge values) [1, 6]: −71.6 μC/g | Fresh developer 2 min shake (charge values) [1, 6]: −36.9 μC/g | Rebuilt developer 2 min shake (charge values) [1, 6]: −42.6 μC/g | Rebuilt developer 10 min exercise (charge values) [1, 6]: −60.5 μC/g

O=C(O)c1ccc(C(=O)O)cc1 [Terephthalic acid]
Fresh Developer 10 min exercise (charge values) [1, 4]: −58.9 μC/g | Fresh developer 2 min shake (charge values) [1, 4]: −25.5 μC/g | Rebuilt developer 2 min shake (charge values) [1, 4]: −45.3 μC/g | Rebuilt developer 10 min exercise (charge values) [1, 4]: −49.8 μC/g | Fresh Developer 10 min exercise (charge per mass) [1, 7]: −37.2 μC/g | Fresh developer 2 min shake (charge per mass) [1, 7]: −30.3 μC/g | Rebuilt developer 2 min shake (charge per mass) [1, 7]: −43.9 μC/g | Rebuilt developer 10 min exercise (charge per mass) [1, 7]: −35.6 μC/g | Fresh Developer 10 min exercise (charge values) [1, 5]: −46.9 μC/g | Fresh developer 2 min shake (charge values) [1, 5]: −24.4 μC/g | Rebuilt developer 2 min shake (charge values) [1, 5]: −34.4 μC/g | Rebuilt developer 10 min exercise (charge values) [1, 5]: −37.9 μC/g | Fresh Developer 10 min exercise (charge per mass) [1, 8]: −19.7 μC/g | Fresh developer 2 min shake (charge per mass) [1, 8]: −34.9 μC/g | Rebuilt developer 2 min shake (charge per mass) [1, 8]: −15.2 μC/g | Rebuilt developer 10 min exercise (charge per mass) [1, 8]: −12.9 μC/g | Fresh Developer 10 min exercise (charge values) [1, 6]: −13.8 μC/g | Fresh developer 2 min shake (charge values) [1, 6]: −28.3 μC/g | Rebuilt developer 2 min shake (charge values) [1, 6]: −16.5 μC/g | Rebuilt developer 10 min exercise (charge values) [1, 6]: −13.3 μC/g | Fresh Developer 10 min exercise (charge per mass) [1, 9]: −10.0 μC/g | Fresh developer 2 min shake (charge per mass) [1, 9]: −32.8 μC/g | Rebuilt developer 2 min shake (charge per mass) [1, 9]: −18.2 μC/g | Rebuilt developer 10 min exercise (charge per mass) [1, 9]: −5.8 μC/g

O=C(O)c1ccccc1C(=O)O [phthalic]
pKa 1 [3]: 3.0 | pKa 2 [3]: 5.4

CCCCCCCCCCCC(=O)O [Lauric acid]
Fresh Developer 10 min exercise (charge values) [1, 4]: −88.1 μC/g | Fresh developer 2 min shake (charge values) [1, 4]: −44.3 μC/g | Rebuilt developer 2 min shake (charge values) [1, 4]: −60.1 μC/g | Rebuilt developer 10 min exercise (charge values) [1, 4]: −77.5 μC/g | Fresh Developer 10 min exercise (charge per mass) [1, 7]: −96.0 μC/g | Fresh developer 2 min shake (charge per mass) [1, 7]: −40.9 μC/g | Rebuilt developer 2 min shake (charge per mass) [1, 7]: −83.5 μC/g | Rebuilt developer 10 min exercise (charge per mass) [1, 7]: −110.1 μC/g | Fresh Developer 10 min exercise (charge values) [1, 5]: −104.5 μC/g | Fresh developer 2 min shake (charge values) [1, 5]: −43.7 μC/g | Rebuilt developer 2 min shake (charge values) [1, 5]: −69.6 μC/g | Rebuilt developer 10 min exercise (charge values) [1, 5]: −90.8 μC/g | Fresh Developer 10 min exercise (charge per mass) [1, 8]: −125.5 μC/g | Fresh developer 2 min shake (charge per mass) [1, 8]: −52.5 μC/g | Rebuilt developer 2 min shake (charge per mass) [1, 8]: −114.0 μC/g | Rebuilt developer 10 min exercise (charge per mass) [1, 8]: −123.0 μC/g | Fresh Developer 10 min exercise (charge values) [1, 6]: bicharged | Fresh developer 2 min shake (charge values) [1, 6]: −14.7 μC/g | Rebuilt developer 2 min shake (charge values) [1, 6]: −35.0 μC/g | Rebuilt developer 10 min exercise (charge values) [1, 6]: bicharged | Fresh Developer 10 min exercise (charge per mass) [1, 9]: bicharged | Fresh developer 2 min shake (charge per mass) [1, 9]: −8.7 μC/g | Rebuilt developer 2 min shake (charge per mass) [1, 9]: −12.1 μC/g | Rebuilt developer 10 min exercise (charge per mass) [1, 9]: −6.2 μC/g

O=C(O)CCCCC(=O)O [Adipic acid]
pKa 1 [3]: 4.5 | Fresh Developer 10 min exercise (charge per mass) [1, 7]: −63.2 μC/g | Fresh developer 2 min shake (charge per mass) [1, 7]: −25.9 μC/g | Rebuilt developer 2 min shake (charge per mass) [1, 7]: −56.9 μC/g | Rebuilt developer 10 min exercise (charge per mass) [1, 7]: −57.7 μC/g | Fresh Developer 10 min exercise (charge per mass) [1, 10]: −30.1 μC/g | Fresh developer 2 min shake (charge per mass) [1, 10]: −10.0 μC/g | Rebuilt developer 2 min shake (charge per mass) [1, 10]: −7.1 μC/g | Rebuilt developer 10 min exercise (charge per mass) [1, 10]: −17.3 μC/g | Fresh Developer 10 min exercise (charge per mass) [1, 11]: −64.2 μC/g | Fresh developer 2 min shake (charge per mass) [1, 11]: −29.6 μC/g | Rebuilt developer 2 min shake (charge per mass) [1, 11]: −39.4 μC/g | Rebuilt developer 10 min exercise (charge per mass) [1, 11]: −49.6 μC/g | Fresh Developer 10 min exercise (charge per mass) [1, 8]: −40.9 μC/g | Fresh developer 2 min shake (charge per mass) [1, 8]: −23.7 μC/g | Rebuilt developer 2 min shake (charge per mass) [1, 8]: −27.1 μC/g | Rebuilt developer 10 min exercise (charge per mass) [1, 8]: −28.8 μC/g | Fresh Developer 10 min exercise (charge per mass) [1, 12]: −27.6 μC/g | Fresh developer 2 min shake (charge per mass) [1, 12]: −10.1 μC/g | Rebuilt developer 2 min shake (charge per mass) [1, 12]: −4.6 μC/g | Rebuilt developer 10 min exercise (charge per mass) [1, 12]: −12.5 μC/g | Fresh Developer 10 min exercise (charge per mass) [1, 13]: −41.8 μC/g | Fresh developer 2 min shake (charge per mass) [1, 13]: −30.4 μC/g | Rebuilt developer 2 min shake (charge per mass) [1, 13]: −17.1 μC/g | Rebuilt developer 10 min exercise (charge per mass) [1, 13]: −32.3 μC/g | Fresh Developer 10 min exercise (charge per mass) [1, 9]: −25.8 μC/g | Fresh developer 2 min shake (charge per mass) [1, 9]: −18.6 μC/g | Rebuilt developer 2 min shake (charge per mass) [1, 9]: −17.9 μC/g | Rebuilt developer 10 min exercise (charge per mass) [1, 9]: −24.5 μC/g | Fresh Developer 10 min exercise (charge per mass) [1, 14]: −28.4 μC/g | Fresh developer 2 min shake (charge per mass) [1, 14]: −10.4 μC/g | Rebuilt developer 2 min shake (charge per mass) [1, 14]: −5.3 μC/g | Rebuilt developer 10 min exercise (charge per mass) [1, 14]: −11.6 μC/g | Fresh Developer 10 min exercise (charge per mass) [1, 15]: −35.7 μC/g | Fresh developer 2 min shake (charge per mass) [1, 15]: −18.5 μC/g | Rebuilt developer 2 min shake (charge per mass) [1, 15]: −11.2 μC/g | Rebuilt developer 10 min exercise (charge per mass) [1, 15]: −29.2 μC/g

CC(C)(C)c1cc(C(=O)O)cc(C(C)(C)C)c1 [3,5-di-t-butylbenzoic, 3,5-di-t-butylbenzoic acid]
pKa 1 [3]: 4.6

O=C(O)c1ccccc1O [Salicylic acid]
Fresh Developer 10 min exercise (charge values) [1, 4]: −65.5 μC/g | Fresh developer 2 min shake (charge values) [1, 4]: −22.7 μC/g | Rebuilt developer 2 min shake (charge values) [1, 4]: −46.5 μC/g | Rebuilt developer 10 min exercise (charge values) [1, 4]: −62.0 μC/g | Fresh Developer 10 min exercise (charge values) [1, 5]: −50.5 μC/g | Fresh developer 2 min shake (charge values) [1, 5]: −21.0 μC/g | Rebuilt developer 2 min shake (charge values) [1, 5]: −25.5 μC/g | Rebuilt developer 10 min exercise (charge values) [1, 5]: −46.5 μC/g | Fresh Developer 10 min exercise (charge values) [1, 6]: −41.1 μC/g | Fresh developer 2 min shake (charge values) [1, 6]: −17.4 μC/g | Rebuilt developer 2 min shake (charge values) [1, 6]: −17.0 μC/g | Rebuilt developer 10 min exercise (charge values) [1, 6]: −42.8 μC/g
